Patent US11179452B2, “Antigen specific multi epitope vaccines” (priority 2006, dated 2021)
No end group written: not given here.

Columns and labels:
Type in all cases: cell-based, human
[1] = system: PBL; assay: Proliferation of PBL, direct presentation of peptide without APC
Experimental: In all three methods, plates were cultured for 3-5 days under visual control and then 0.5 □Cu/well of 3[H] (Amersham) was added for additional culture of to 18 h at 37° C. […] DC indirect presentation: In the first method, 100 µl of 2×10^6 thawed PBL were placed in U-shape Bottom 96 well plate (Nunc) with RPMI medium supplemented with 5% H AB serum, L-Glutamine, Sodium Pyruvate, MEM-EAGLE non-essential amino-acids, HEPES and Gentamycin. At the next stage 100 µl of 25×10^4 peptide-pulsed DC were added to each three wells of PBL and underwent proliferation analysis as described above. • 2. PBL direct presentation: In the 2nd method, 100 µl of 2×10^6 PBL were placed in Flat Bottom 96 well plates (Corning) and stimulated with different concentrations (0.05 ug/ml-2 ug/ml) of peptides. In the next step the cells underwent proliferation analysis as described above. • 3. PBMC direct presentation: In third method PNMC were used under similar conditions as described for the second method.
Direct presentation of peptides to PBL without any APC

[2] = system: PBL; assay: ELISA of cytokine secretion by PBL stimulated once with peptide-pulsed DC
Experimental: Human PBMC were separated from buffy coat samples of naive donors using Ficoll UNI-SEPmaxi tube. Separated cells were suspended in RPMI medium supplemented with 10% FCS, L-Glutamine, Sodium Pyruvate, MEM-EAGLE non-essential amino-acids, HEPES and Gentamycin Sulphate (Bet-Haemek Industries, IL) and cultivated for 4 h at 37° C. in a culture dish (Corning 150 mm×25 mm). Adherent cells were collected and cultured for 7 days in serum free DCCM-1 medium supplemented with L-Glutamine, huIL-4 (1000 IU/ml) (Cytolab IL) and GM-CSF-80 ug/ml (Cytolab IL). On day seven floating cells were collected and loaded with 50 ug/ml of examined peptide for 18 h at 37° C.
(§1) Cytokine release was studied during the culture of stimulated T-cells. The evaluated samples were collected from the T cell culture medium on day 2, 3, and 5 and stored until use at −20° C.
(§2) […] of the selected capture antibody (e.g. anti-Hu IFN-Gamma, or anti-Hu TNF-alfa or anti IL-2) were added to each well at the final concentration of 5 μg/ml in PBS. Plates were incubated for 2 h at R.T. or over night at 4° C. Next, […] of blocking solution were added for an incubation of 2 h at R.T. […] of evaluated samples were added in duplicate into 2 wells for 2 hours at RT. After 2 h of incubation at R.T plates were washed λ4 times in washing solution. In the next step, a Biotin-conjugated detection antibody (relevant to coated antibody) was added at a final concentration of 10 μg/ml in total volume of 100 μl for 1 h at R.T. Finally, 100 μl/well working dilution (1:10000 in Blocker solution) of Streptavidin-HRP were added to each well and incubated for 1 h at R.T.
(§3) Plates were washed λ6 times with PBS-Tween (0.4%) and 100 μl/well of TMB/E Solution (CHEMICON, Catalog #ES001) was added. The plates were then exposed until blue color appeared in the wells of the positive control and no color was detected in the blank wells. To stop the color reaction, 50 μl/well of 10% of Sulfuric acid was added. The plates were counted in ELISA-Reader using a 450 nm filter.

[3] = system: ImMucin specific enriched T-cell clone; assay: ELISA of cytokine secretion during development of the ImMucin-specific T cell subpopulation by repeated stimulation (FIG. 1)
Text: (§4) Thawed PBLs underwent 1st stimulation with ImMucin pulsed Autologues DC at a ratio of 20:1 and cultured for 7 days in dedicated T cell Medium. T cell medium contained RPMI medium supplemented with 10% FCS, L-Glutamine, Sodium Pyruvate, MEM-EAGLE non-essential amino-acids, HEPES and Gentamycin Sulphate (Bet-Haemek Industries, IL) as well as with 50 IU/ml of recombinant IL-7 (Cytolab IL). For the second stimulation, PBL were transferred to adherent autologues ImMucin-pulsed PBMC and cultured for additional 5 days in T cell Medium. At the end of the 5 days, medium was partial replaced with fresh medium containing 1 ug/ml of ImMucin and 50 IU/ml IL-2 for a third stimulation of 48 h at 37° C. Following the last stimulation ImMucin T cell line was checked for immune activation properties.
as §1, §2, §3
For producing the specific T cell subpopulation PBL were stimulated three times for 7, 5 and 2 days with ImMucin presented via DC and PBMC. Following the 3rd stimulation the cells were evaluated against the different VXL epitopes.

[4] = system: PBLs (CD4+, CD8+, CD45RO+ T cells); assay: FACS analysis of T cell phenotype during repeated stimulation with ImMucin (FIG. 2)
Text: as §4
For FACS analysis, PBLs were suspended at a final concentration of 20×10^6 and 50 µl were transfer into FACS tube (Falcon) in Blocker solution (PBS with 3% FCS and 0.1% Sodium Azide). 10 µl of fluorochrome-conjugate anti-CD4, anti-CD8, and anti-CD45RO (eBioscience) were added for 30 min on ice at 0° C. in the Dark. After the incubation cell were washed with 2 ml of the blocker solution and re suspended in 0.5 ml of Phosphate buffer saline (PBS). Samples were analyzed in a FACS-sort machine (BD) for positive florescence.
The ability of ImMucin to propagate a subpopulation of CD4^+ and CD8^+ T cells was further analyzed, and in particular the ability of ImMucin to transform naive CD4^+ and CD8^+ T cells into memory cells. This property was evaluated in a FACS analysis measuring the CD45RO^+ marker for memory T cells on CD4^+ and CD8^+ subpopulations (FIG. 2).

[5] = system: lymphocytes from naive donors; assay: Proliferation assay, kinetics of lymphocyte activation as summarised in text (presentation mode not stated); conditions: summary of five experiments
Experimental: Proliferation analysis was conducted in three different methods. In all three methods, plates were cultured for 3-5 days under visual control and then 0.5 […]Cu/well of 3[H] (Amersham) was added for additional culture of to 18 h at 37° C. In the last step, plates were harvested and the radioactive counts were measured in a □ counter. • 1. DC indirect presentation: In the first method, 100 µl of 2×10^6 thawed PBL were placed in U-shape Bottom 96 well plate (Nunc) with RPMI medium supplemented with 5% H AB serum, L-Glutamine, Sodium Pyruvate, MEM-EAGLE non-essential amino-acids, HEPES and Gentamycin. At the next stage 100 µl of 25×10^4 peptide-pulsed DC were added to each three wells of PBL and underwent proliferation analysis as described above. • 2. PBL direct presentation: In the 2nd method, 100 µl of 2×10^6 PBL were placed in Flat Bottom 96 well plates (Corning) and stimulated with different concentrations (0.05 ug/ml-2 ug/ml) of peptides. In the next step the cells underwent proliferation analysis as described above. • 3. PBMC direct presentation: In third method PNMC were used under similar conditions as described for the second method.
A different parameter for assessing the properties of ImMucin and the other VXL-peptide epitopes is by analyzing the time until a maximal peak of activity occurs and the optimal dose for maximal stimulation. Maximal peak of PBL activation is determined when <50% of the PBLs appear in clumps. In these experiments, the kinetic (time) in the proliferation of lymphocytes from the six naive donors stimulated at a fix dose of 0.05-1 ug/ml by ImMucin and other VXL-Peptides, was observed.

[6] = peptide DC ratio 16:1, one out of five experiments, six donors
[7] = peptide pulsed DC ratio 16:1, one out of two experiments, two donors (Table 12)
[8] = after the second and third stimulations with ImMucin

In the case of MTPGTQSPFFLLLLLTVLTVV [ImMucin], the “PBL Index of stimulation (SI) Direct no APC” value ([1]; average of two healthy donors (Table 11)) is reported as 0, the “Optimal dose Direct no APC” value ([1]; optimal dose required for PBL activation, average of 5 experiments, six donors) is reported as “No Influence” and the “Peak of Proliferation (Hours) Direct no APC” value ([1]; visual inspection daily during 5 days, average of 5 experiments) is reported as “No proliferation”. For the same sequence, the IL-2 [2, 6] was 3.62 ng/mL, the TNF-Alfa [2, 6] was 11.6 ng/mL and the IFN-gamma [2, 7] was 0.5 ng/mL. For the same sequence, the TNF-Alfa [2, 7] was 11.6 ng/mL, the TNF-Alfa secretion ([3]; after the 3rd stimulation on day 14) was “completely disappeared” and the “IL-2 secretion from CD4+ T cells” value [3, 8] was “increased dramatically”. The “INF-gamma secretion mainly from CD8+ T cells” value [3, 8] was “increased dramatically”, the “TNF-Alfa secretion, peak” value ([3]; during the first stimulation with ImMucin (FIG. 1)) was 5 ng/mL and the TNF-Alfa secretion ([3]; following a second stimulation with ImMucin) was “decreased”. For the same sequence, the “increase in percentage of memory CD45RO+ cells” value ([4]; ImMucin activation) was “two fold”, the “percentage of CD8+ T cells” value ([4]; after repeated stimulation with ImMucin, from 15% before) was 36% and the “percentage of CD4+ T cells” value ([4]; after repeated stimulation with ImMucin, from 43% before) was 85%. The “peak of proliferation / maximum stimulation” value [5] was about 96 h.
